# According to PubChem BioAssay AID1963851 (Molecular Pharmacology Branch, DTP, NCI, 2024):
# Where “and” joins values, the source holds several entries; their conditions need not be identical. Equal values may be shown once.
# System: 188146-221-R-J1-PDC complex spheroid viability
# Experiment: Anticancer human tumor 188146-221-R-J1-PDC patient-derived colon adenocarcinoma cell line growth inhibition [POLQ]
# Settings: for viability, T/C: stronger effect = lower value
# Summary of the method: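 PDC + HUVEC + MSC complex spheroids; POLQ inhibitors ± partner drugs; top conc. at/near clinical Cmax, else 10 microM (SN-38 1 microM), half-log dilutions; 37 degrees C, 5% CO2.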
# [1] = curve of first compound, second compound 0.0316 µM
# [2] = curve of first compound, second compound 0.1 µM
# [3] = curve of first compound, second compound 0.316 µM
# [4] = curve of first compound, second compound 1 µM
# [5] = curve of first compound, second compound 3.16 µM
# [6] = curve of first compound, second compound 10 µM
# [7] = second compound 0.0316 µM, first compound 0.0316 µM
# [8] = second compound 0.0316 µM, first compound 0.1 µM
# [9] = second compound 0.0316 µM, first compound 0.316 µM
# [10] = second compound 0.0316 µM, first compound 1 µM
# [11] = second compound 0.0316 µM, first compound 3.16 µM
# [12] = second compound 0.0316 µM, first compound 10 µM
# [13] = second compound 0.1 µM, first compound 0.0316 µM
# [14] = second compound 0.1 µM, first compound 0.1 µM
# [15] = second compound 0.1 µM, first compound 0.316 µM
# [16] = second compound 0.1 µM, first compound 1 µM
# [17] = second compound 0.1 µM, first compound 3.16 µM
# [18] = second compound 0.1 µM, first compound 10 µM
# [19] = second compound 0.316 µM, first compound 0.0316 µM
# [20] = second compound 0.316 µM, first compound 0.1 µM
# [21] = second compound 0.316 µM, first compound 0.316 µM
# [22] = second compound 0.316 µM, first compound 1 µM
# [23] = second compound 0.316 µM, first compound 3.16 µM
# [24] = second compound 0.316 µM, first compound 10 µM
# [25] = second compound 1 µM, first compound 0.0316 µM
# [26] = second compound 1 µM, first compound 0.1 µM
# [27] = second compound 1 µM, first compound 0.316 µM
# [28] = second compound 1 µM, first compound 1 µM
# [29] = second compound 1 µM, first compound 3.16 µM
# [30] = second compound 1 µM, first compound 10 µM
# [31] = second compound 3.16 µM, first compound 0.0316 µM
# [32] = second compound 3.16 µM, first compound 0.1 µM
# [33] = second compound 3.16 µM, first compound 0.316 µM
# [34] = second compound 3.16 µM, first compound 1 µM
# [35] = second compound 3.16 µM, first compound 3.16 µM
# [36] = second compound 3.16 µM, first compound 10 µM
# [37] = second compound 10 µM, first compound 0.0316 µM
# [38] = second compound 10 µM, first compound 0.1 µM
# [39] = second compound 10 µM, first compound 0.316 µM
# [40] = second compound 10 µM, first compound 1 µM
# [41] = second compound 10 µM, first compound 3.16 µM
# [42] = second compound 10 µM, first compound 10 µM
# 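Also: spheroids exposed to compounds for seven days.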
# 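For viability, T/C in this document: 100% = DMSO vehicle control viability.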
structure (smiles),measurement,setting,value
O=C(c1cc(Cc2n[nH]c(=O)c3ccccc23)ccc1F)N1CCN(C(=O)C2CC2)CC1,"viability, T/C",compound 0.0316 µM,95.8% and 103% and 101%
same,"viability, T/C",compound 0.1 µM,105% and 101% and 97%
same,"viability, T/C",compound 0.316 µM,89.8% and 97.6% and 92.6%
same,"viability, T/C",compound 1 µM,90.3% and 81.9% and 108%
same,"viability, T/C",compound 3.16 µM,104% and 95.4% and 97.6%
same,"viability, T/C",compound 10 µM,73.3% and 74% and 74.6%
same,IC50,curve of compound,> 10 µM
CC1COCCN1c1cc(C2(O)CC3CCC(C2)O3)c2cnn(-c3ccn[nH]3)c2n1 (stereo unspecified) + COC1C(OC(N)=O)C(O)C(Oc2ccc3c(O)c(NC(=O)c4ccc(O)c(CC=C(C)C)c4)c(=O)oc3c2C)OC1(C)C,IC50,[1],0.295 µM
same,IC50,[2],0.428 µM
same,IC50,[3],0.425 µM
same,IC50,[4],0.425 µM
same,IC50,[5],0.299 µM
same,IC50,[6],0.195 µM
same,"viability, T/C",[7],93.4%
same,"viability, T/C",[8],68.8%
same,"viability, T/C",[9],53.1%
same,"viability, T/C",[10],25.5%
same,"viability, T/C",[11],18%
same,"viability, T/C",[12],9.03%
same,"viability, T/C",[13],94.5%
same,"viability, T/C",[14],78.5%
same,"viability, T/C",[15],56.9%
same,"viability, T/C",[16],30.9%
same,"viability, T/C",[17],21.2%
same,"viability, T/C",[18],8.19%
same,"viability, T/C",[19],94.7%
same,"viability, T/C",[20],74.1%
same,"viability, T/C",[21],57%
same,"viability, T/C",[22],35.4%
same,"viability, T/C",[23],17%
same,"viability, T/C",[24],9.09%
same,"viability, T/C",[25],93.8%
same,"viability, T/C",[26],79.3%
same,"viability, T/C",[27],57.2%
same,"viability, T/C",[28],30.6%
same,"viability, T/C",[29],17.5%
same,"viability, T/C",[30],9.21%
same,"viability, T/C",[31],82.1%
same,"viability, T/C",[32],67.2%
same,"viability, T/C",[33],51.3%
same,"viability, T/C",[34],26.3%
same,"viability, T/C",[35],14.9%
same,"viability, T/C",[36],8.05%
same,"viability, T/C",[37],90.5%
same,"viability, T/C",[38],62.4%
same,"viability, T/C",[39],41.8%
same,"viability, T/C",[40],22.8%
same,"viability, T/C",[41],19%
same,"viability, T/C",[42],7.81%
COc1cc2cc(C(=O)CCC(=O)O)sc2cc1OC + Nc1ccc(C#CCN(C(=O)Cc2ncc(C(F)(F)F)cc2C(F)(F)F)c2ccc(F)cc2)nn1,IC50,[1],> 10 µM
same,IC50,[2],> 10 µM
same,IC50,[3],> 10 µM
same,IC50,[4],> 10 µM
same,IC50,[5],> 10 µM
same,IC50,[6],> 10 µM
same,"viability, T/C",[7],115%
same,"viability, T/C",[8],102%
same,"viability, T/C",[9],96.4%
same,"viability, T/C",[10],119%
same,"viability, T/C",[11],90.2%
same,"viability, T/C",[12],105%
same,"viability, T/C",[13],105%
same,"viability, T/C",[14],115%
same,"viability, T/C",[15],107%
same,"viability, T/C",[16],96.2%
same,"viability, T/C",[17],118%
same,"viability, T/C",[18],102%
same,"viability, T/C",[19],109%
same,"viability, T/C",[20],100%
same,"viability, T/C",[21],89.3%
same,"viability, T/C",[22],107%
same,"viability, T/C",[23],107%
same,"viability, T/C",[24],97.4%
same,"viability, T/C",[25],117%
same,"viability, T/C",[26],116%
same,"viability, T/C",[27],106%
same,"viability, T/C",[28],96.3%
same,"viability, T/C",[29],104%
same,"viability, T/C",[30],102%
same,"viability, T/C",[31],105%
same,"viability, T/C",[32],114%
same,"viability, T/C",[33],96.8%
same,"viability, T/C",[34],119%
same,"viability, T/C",[35],109%
same,"viability, T/C",[36],118%
same,"viability, T/C",[37],101%
same,"viability, T/C",[38],130%
same,"viability, T/C",[39],98.5%
same,"viability, T/C",[40],113%
same,"viability, T/C",[41],104%
same,"viability, T/C",[42],120%
